Among the data in patent publication US8822447B2, “Indazole compounds useful as ketohexokinase inhibitors” (Janssen Pharmaceutica NV, priority 2010, dated 2014) are IC50 values, retold here.

Structures can show the parent of a compound that is named as a salt.

This experiment deals with KHK (Homo sapiens (Human), UniProt P50053). The experiment is described as follows: In Vitro KHK Enzyme Assay (HTMS).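 Further: primary screen measuring inhibition of KHK-catalysed conversion of D-fructose into fructose 1-phosphate.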 The class given is biochemical. Conditions: 200 μM fructose, 100 μM ATP, 2 nM KHK, 60 min at 25° C.; Fructose-1-P detected by high throughput mass spectrometry.
Chain of KHK (P50053 whole entry): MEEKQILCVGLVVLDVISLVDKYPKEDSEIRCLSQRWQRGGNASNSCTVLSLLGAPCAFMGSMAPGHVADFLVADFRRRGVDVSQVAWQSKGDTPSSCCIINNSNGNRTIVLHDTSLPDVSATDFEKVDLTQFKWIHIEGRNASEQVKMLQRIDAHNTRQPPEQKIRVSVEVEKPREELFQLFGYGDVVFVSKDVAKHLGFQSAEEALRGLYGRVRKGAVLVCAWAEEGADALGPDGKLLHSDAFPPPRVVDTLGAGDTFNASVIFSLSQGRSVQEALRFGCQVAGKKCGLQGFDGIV
Procedure: An enzymatic assay was developed to measure KHK-mediated conversion of D-fructose to Fructose-1-P (F-1-P) using High Throughput Mass Spectroscopy (HTMS) as a means of product detection. This assay served as a primary screen to evaluate the ability to inhibit KHK enzyme activity and it has been adapted to high throughput mass spectrometry (HTMS, BioTrove RapidFire™) format for higher throughput.
The compounds to be tested were dosed in 12-points concentration from 511 μM to 0.5 μM. […] The assay was carried out in 384-well plate format.
As a reminder, the IC50 is the concentration that inhibits the measured activity by half. The low end stands for greater potency in that assay, the high end for weaker potency in that assay. Consider `COc1nn(-c2ccccc2)c2cc(NC(=O)c3ccc4[nH]cnc4c3)ccc12` [Compound 80, N-(3-methoxy-1-phenyl-1H-indazol-6-yl)-1H-benzo[d]imidazole-5-carboxamide], for which the IC50 was found to be 4500 nM.

`CCN(CC1CCNCC1)c1ccc2c(SC)nn(-c3ccccc3)c2c1` [Compound 108, Ethyl-(3-methylsulfanyl-1-phenyl-1H-indazol-6-yl)-piperidin-4-ylmethyl-amine] gave an IC50 of 890 nM.

In turn, `CCc1nn(-c2ccccc2)c2nc(C3CCN(c4ccncc4)CC3)nc(O)c12` [Compound 92, 3-Ethyl-1-phenyl-6-(3,4,5,6-tetrahydro-2H-[1,4′]bipyridinyl-4-yl)-1H-pyrazolo[3,4-d]pyrimidin-4-ol] yielded an IC50 of 1670 nM.

With `CSc1nn(-c2ccccc2)c2cc(N3CCN(C(=O)C4CCNCC4)CC3)ccc12` [Compound 34, (4-(3-(Methylthio)-1-phenyl-1H-indazol-6-yl)piperazin-1-yl)(piperidin-4-yl)methanone hydrochloride], the IC50 came to 830 nM.
